Assay results published in PubChem BioAssay AID2060328 (Molecular Pharmacology Branch, DTP, NCI, 2025).
Where “and” joins values, the source holds several entries; their conditions need not be identical. Equal entries are not always repeated.

System: MDA-MB-231 multicell spheroids, viability (%T/C)
Assay: Anticancer human tumor MDA-MB-231 cell line growth inhibition [IpAb];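 note: viability read after seven days of drug exposure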;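 for viability, T/C: 100% = DMSO vehicle control viability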
Conditions: for viability, T/C: stronger effect = lower value
Summary of the method: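 Combinations with ipatasertib or abemaciclib were tested on tumour spheroids holding HUVEC (25%) and MSC (15%) alongside 60% malignant cells. Top concentration was at or near clinical Cmax (10 microM if undefined), descending in half-log steps.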

[1] = curve of first compound, second compound 0.1 µM
[2] = curve of first compound, second compound 0.316 µM
[3] = curve of first compound, second compound 1 µM
[4] = second compound 0.1 µM, first compound 0.0316 µM
[5] = second compound 0.1 µM, first compound 0.1 µM
[6] = second compound 0.1 µM, first compound 0.316 µM
[7] = second compound 0.1 µM, first compound 1 µM
[8] = second compound 0.316 µM, first compound 0.0316 µM
[9] = second compound 0.316 µM, first compound 0.1 µM
[10] = second compound 0.316 µM, first compound 0.316 µM
[11] = second compound 0.316 µM, first compound 1 µM
[12] = second compound 1 µM, first compound 0.0316 µM
[13] = second compound 1 µM, first compound 0.1 µM
[14] = second compound 1 µM, first compound 0.316 µM
[15] = second compound 1 µM, first compound 1 µM

For `CCN1CCN(Cc2ccc(Nc3ncc(F)c(-c4cc(F)c5nc(C)n(C(C)C)c5c4)n3)nc2)CC1`, the viability, T/C (compound 0.01 µM) was 88.6% [middle of 13 runs], the viability, T/C (compound 0.0316 µM) was 74.8% [middle of 13 runs] and the viability, T/C (compound 0.1 µM) was 58.9% [middle of 13 runs]. The viability, T/C (compound 0.316 µM) was 46.5% [middle of 13 runs] and the viability, T/C (compound 1 µM) was 48.8% [middle of 13 runs].

With `COc1c(OCCCN2CCOCC2)ccc2c3n(c(=NC(=O)c4cnc(N)nc4)nc12)CCN3` + CC(C)NCC(C(=O)N1CCN(c2ncnc3c2C(C)CC3O)CC1)c1ccc(Cl)cc1 the IC50 [1] was 50.9 nM, the IC50 [2] was 27.7 nM and the IC50 [3] was 16.1 nM. It also gave an IC50 (curve of first compound, second compound 3.16 µM) of 4.7 nM, an IC50 (curve of first compound, second compound 10 µM) of under 3.16 nM and a viability, T/C (second compound 0.1 µM, first compound 0.00316 µM) of 85.3%. It also gave a viability, T/C (second compound 0.1 µM, first compound 0.01 µM) of 70.1%, a viability, T/C [4] of 57.4% and a viability, T/C [5] of 42.3%. For the same compound, the viability, T/C [6] was 34.1%, the viability, T/C [7] was 40.3% and the viability, T/C (second compound 0.316 µM, first compound 0.00316 µM) was 71%. The viability, T/C (second compound 0.316 µM, first compound 0.01 µM) was 59.4%, the viability, T/C [8] was 51.7% and the viability, T/C [9] was 37.5%. It also gave a viability, T/C [10] of 31.7%, a viability, T/C [11] of 41% and a viability, T/C (second compound 1 µM, first compound 0.00316 µM) of 62.6%. For the same compound, the viability, T/C (second compound 1 µM, first compound 0.01 µM) was 54.4%, the viability, T/C [12] was 43.9% and the viability, T/C [13] was 36.3%. It also gave a viability, T/C [14] of 28.2%, a viability, T/C [15] of 41.9% and a viability, T/C (second compound 3.16 µM, first compound 0.00316 µM) of 52.1%. The viability, T/C (second compound 3.16 µM, first compound 0.01 µM) was 47%, the viability, T/C (second compound 3.16 µM, first compound 0.0316 µM) was 37.1% and the viability, T/C (second compound 3.16 µM, first compound 0.1 µM) was 30.4%. The viability, T/C (second compound 3.16 µM, first compound 0.316 µM) was 25.2%, the viability, T/C (second compound 3.16 µM, first compound 1 µM) was 32.5% and the viability, T/C (second compound 10 µM, first compound 0.00316 µM) was 33.6%. It also gave a viability, T/C (second compound 10 µM, first compound 0.01 µM) of 31.9%, a viability, T/C (second compound 10 µM, first compound 0.0316 µM) of 28.2% and a viability, T/C (second compound 10 µM, first compound 0.1 µM) of 22.6%. For the same compound, the viability, T/C (second compound 10 µM, first compound 0.316 µM) was 20% and the viability, T/C (second compound 10 µM, first compound 1 µM) was 31.1%.

With `Cc1nc(NC(=O)N2CCCC2C(N)=O)sc1-c1ccnc(C(C)(C)C(F)(F)F)c1` (configuration not stated) + CCN1CCN(Cc2ccc(Nc3ncc(F)c(-c4cc(F)c5nc(C)n(C(C)C)c5c4)n3)nc2)CC1 the IC50 (curve of first compound, second compound 0.01 µM) was over 10000 nM, the IC50 (curve of first compound, second compound 0.0316 µM) was 159 nM and the IC50 [1] was under 31.6 nM. For the same compound, the IC50 [2] was under 31.6 nM, the IC50 [3] was under 31.6 nM and the viability, T/C (second compound 0.01 µM, first compound 0.0316 µM) was 79.3%. The viability, T/C (second compound 0.01 µM, first compound 0.1 µM) was 61.5%, the viability, T/C (second compound 0.01 µM, first compound 0.316 µM) was 56% and the viability, T/C (second compound 0.01 µM, first compound 1 µM) was 55.2%. It also gave a viability, T/C (second compound 0.01 µM, first compound 3.16 µM) of 59.1%, a viability, T/C (second compound 0.01 µM, first compound 10 µM) of 55.4% and a viability, T/C (second compound 0.0316 µM, first compound 0.0316 µM) of 64%. For the same compound, the viability, T/C (second compound 0.0316 µM, first compound 0.1 µM) was 52.2%, the viability, T/C (second compound 0.0316 µM, first compound 0.316 µM) was 46.6% and the viability, T/C (second compound 0.0316 µM, first compound 1 µM) was 45.9%. For the same compound, the viability, T/C (second compound 0.0316 µM, first compound 3.16 µM) was 47.3%, the viability, T/C (second compound 0.0316 µM, first compound 10 µM) was 45.4% and the viability, T/C [4] was 46.1%. The viability, T/C [5] was 41.8%, the viability, T/C [6] was 35.8% and the viability, T/C [7] was 38.4%. The viability, T/C (second compound 0.1 µM, first compound 3.16 µM) was 41.5%, the viability, T/C (second compound 0.1 µM, first compound 10 µM) was 41.8% and the viability, T/C [8] was 43.7%. It also gave a viability, T/C [9] of 39.3%, a viability, T/C [10] of 37.3% and a viability, T/C [11] of 37.7%. For the same compound, the viability, T/C (second compound 0.316 µM, first compound 3.16 µM) was 39.4%, the viability, T/C (second compound 0.316 µM, first compound 10 µM) was 45.3% and the viability, T/C [12] was 50.8%. For the same compound, the viability, T/C [13] was 48.2%, the viability, T/C [14] was 44.6% and the viability, T/C [15] was 45.9%. It also gave a viability, T/C (second compound 1 µM, first compound 3.16 µM) of 53.9% and a viability, T/C (second compound 1 µM, first compound 10 µM) of 61%.

With `CC(C)(C)c1cnc(CSc2cnc(NC(=O)C3CCNCC3)s2)o1` the viability, T/C (compound 0.00949 µM) was 109%, the viability, T/C (compound 0.03 µM) was 118% and 115% and the viability, T/C (compound 0.0949 µM) was 120% and 105%. The viability, T/C (compound 0.3 µM) was 1.96% and 1.34%, the viability, T/C (compound 0.949 µM) was 1.07% and 1.11% and the viability, T/C (compound 3 µM) was 0.92% and 1.78%. For the same compound, the IC50 (curve of compound) was 184 nM and 175 nM.
